{"source": "patent US20230272401A1", "about": "“COMPOSITIONS FOR FLCN GENE MODULATION AND METHODS THEREOF” (GENETIC INTELLIGENCE, INC, priority 2020, published 2023)", "note": "e = 2'-O-(2-methoxyethyl) (MOE); d = 2'-deoxy (DNA); m = 2'-O-methyl", "data": [{"test_system": "human FLCN protein", "assay": "Antisense inhibition of human FLCN in HEK293T cells, IC50 (Western blot)", "type": "cell-based", "conditions": "0 nM to 100 nM ASO, Lipofectamine, 2-day incubation, FLCN protein by Western blot", "source_text": "The antisense oligonucleotides listed in this example have all nucleosides linked by modified phosphorothioate backbones. Bolded nucleosides presented in Table 17 indicate nucleosides that are modified with a 2′-MOE sugar modification. Underlined nucleosides presented in Table 17 indicate non-modified DNA nucleosides (deoxynucleotides). Nucleosides that are italicized indicate nucleosides with a 2′-OMe sugar modification. GI81, GI84, GI85, GI86, GI88, GI89 and GI90 are gapped sequences comprising a central sequence of deoxynucleotides, which are flanked on both sides by wing sequences consisting of 2′-MOE modified nucleotides, wherein the second nucleotide of the central sequence from the 5′ end of the oligonucleotide contains a 2′-OMe sugar modification.\nThese antisense oligonucleotides were tested in the human cell line HEK293T. HEK293T cells were seeded at 400,000 cells per well in a 6-well plate. After 1 day, various concentrations of antisense oligonucleotides ranging from 0 nM to 100 nM were transfected into the cells using Lipofectamine. After a 2-day incubation period, the cells were harvested to obtain whole cell lysates. The whole cell lysates were analyzed by Western blot and probed with a FLCN-specific antibody (CST #3697). The intensity of Western blot bands were quantified by FIJI (Image J) and used to quantify the expression levels of FLCN. The relative expression values of FLCN for the different treatment groups were calculated by normalizing with their respective α-Tubulin loading control, and presented as a percentage to that of the untreated control (which in this case comprised cells not transfected with ASOs). The potencies of these antisense oligonucleotides are reported in the form of IC50 values in Table 17.", "units": {"IC50": "nM"}, "values": [{"substance": "GI81: gapped phosphorothioate ASO, 2′-MOE wings, 2′-OMe at second gap nucleotide, TGGCTGATATATCCCGGG, Exon 5, SEQ ID NO 21 (sugars from the 5' end e4 d1 m1 d8 e4, all phosphorothioate, methylation of C not given here)", "IC50": 14}, {"substance": "GI88: gapped phosphorothioate ASO, 2′-MOE wings, 2′-OMe at second gap nucleotide, GCCTGGCGGACAATGCTG, Exon 5, SEQ ID NO 616 (sugars from the 5' end e4 d1 m1 d8 e4, all phosphorothioate, methylation of C not given here)", "IC50": 19}, {"substance": "GI90: gapped phosphorothioate ASO, 2′-MOE wings, 2′-OMe at second gap nucleotide, CGGGTGCCCTGCAGCAAG, Exon 5, SEQ ID NO 618 (sugars from the 5' end e4 d1 m1 d8 e4, all phosphorothioate, methylation of C not given here)", "IC50": 35}]}]}
